Reference: patent US8530478B2, “Piperazine derivatives used as CAV2.2 calcium channel modulators” (Convergence Pharmaceuticals Limited, priority 2008, dated 2013)
Where a name gives a salt, the structure may show the parent alone.

Target: T1, hCav2.2 (Homo sapiens, UniProt Q00975)
T1 construct: expressed in transfected cells; plasmids pCIN5-hCav2.2, pCIH-hCav β3, pCIP-α2δ1
Assay: hCav2.2 assay (IonWorks planar array electrophysiology, HEK293 stable cell line)
Assay type: cell-based
Conditions: inhibition of current elicited by the 1st depolarising pulse; HEK293 cells expressing human Cav2.2 α/β3/α2δ1; tested in the form described in the Examples; read-out: mean pIC50 (tonic pIC50) (converted)
Method: Compounds of the invention may be tested for in vitro biological activity in the hCav2.2 assay in accordance with the following studies:
Stable cell lines expressing the human Cav2.2 α (α1B) subunit, along with the human β3 and α2δ1 auxiliary subunits were created following sequential transfection and selection of human embryonic kidney (HEK293) cells. HEK293 cells were cultured in Dulbecco's modified Eagles media/F12 media (Invitrogen, Cat # 041-95750V) containing 10% foetal bovine serum, with added L-glutamine (2 mM; Invitrogen, Cat # 25030-024) and non-essential amino acids (5%; Invitrogen, Cat # 11140-035). Initially HEK293 cells were transfected with two plasmid vectors for expression of the hCav2.2 α subunit (pCIN5-hCav2.2 which carries a neomycin resistance marker) and the hCav β3 subunit (pCIH-hCav β3 which carries a hygromycin resistance marker). Clonal cell lines were isolated following selection in media supplemented with 0.4 mg ml^−1 Geneticin G418 (Invitrogen, Cat # 10131-027) and 0.1 mg ml^−1 hygromycin (Invitrogen, Cat # 10687-010). These clonal cell lines were assessed for Cav2.2 α/β3-mediated current expression using the IonWorks planar array electrophysiology technology (described below). A clonal line was identified that gave a reasonable level of functional Cav2.2 α/β3 current expression. This cell line was transfected with a plasmid vector for expression of the human α2δ1 subunit (pCIP-α2δ1 which carries a puromycin resistance marker) and clonal cell lines isolated following selection in media containing 0.62 μg ml^−1 puromycin (Sigma, Cat # P-7255), in addition to 0.4 mg ml^−1 Geneticin G418 and 0.1 mg ml^−1 hygromycin. Several cell lines were identified that gave robust levels of Cav2.2 α/β3/α2δ1-mediated current expression and one of these was selected for compound profiling. Expression of all three subunits within this cell line was continuously maintained by the inclusion of G418 (0.4 mg ml^−1), hygromycin (0.1 mg ml^−1) and puromycin (0.62 μg ml^−1). Cells were maintained at 37° C. in a humidified environment containing 5% CO2 in air. Cells were liberated from the T175 culture flasks for passage and harvesting using TrpLE (Invitrogen, Cat # 12604-013).
Cells were grown to 30-60% confluence in T175 flasks and maintained at 30° C. for 24 hrs prior to recording. Cells were lifted by removing the growth media, washing with Ca^2+ free PBS (Invitrogen, Cat #14190-094) and incubating with 3 ml of warmed (37° C.) TrpLE (Invitrogen, Cat # 12604-013) for 6 minutes. Lifted cells were suspended in 10 ml of extracellular buffer. Cell suspension was then placed into a 15 ml tube and centrifuged for 2 minutes at 700 rpm. After centrifugation, the supernatant was removed and the cell pellet was resuspended in 4.5 ml of extracellular solution.
Currents were recorded at room temperature (21-23° C.) using the IonWorks planar array electrophysiology technology (Molecular Devices Corp.). Stimulation protocols and data acquisition were carried out using a microcomputer (Dell Pentium 4). In order to determine planar electrode hole resistances (Rp), a 10 mV, 160 ms potential difference was applied across each hole. These measurements were performed before cell addition. After cell addition a seal test was performed prior to antibiotic (amphotericin) circulation to achieve intracellular access. Leak subtraction was conducted in all experiments by applying a 160 ms hyperpolarizing (10 mV) prepulse 200 ms before the test pulses to measure leak conductance. Test pulses stepping from the holding potential (VH) of −90 mV to +10 mV were applied for 20 ms and repeated 10 times at a frequency of 10 Hz. In all experiments, the test pulse protocol was performed in the absence (pre-read) and presence (post-read) of a compound. Pre- and post-reads were separated by a compound addition followed by a 3-3.5 min incubation. […]

T1 sequence (Q00975 whole entry): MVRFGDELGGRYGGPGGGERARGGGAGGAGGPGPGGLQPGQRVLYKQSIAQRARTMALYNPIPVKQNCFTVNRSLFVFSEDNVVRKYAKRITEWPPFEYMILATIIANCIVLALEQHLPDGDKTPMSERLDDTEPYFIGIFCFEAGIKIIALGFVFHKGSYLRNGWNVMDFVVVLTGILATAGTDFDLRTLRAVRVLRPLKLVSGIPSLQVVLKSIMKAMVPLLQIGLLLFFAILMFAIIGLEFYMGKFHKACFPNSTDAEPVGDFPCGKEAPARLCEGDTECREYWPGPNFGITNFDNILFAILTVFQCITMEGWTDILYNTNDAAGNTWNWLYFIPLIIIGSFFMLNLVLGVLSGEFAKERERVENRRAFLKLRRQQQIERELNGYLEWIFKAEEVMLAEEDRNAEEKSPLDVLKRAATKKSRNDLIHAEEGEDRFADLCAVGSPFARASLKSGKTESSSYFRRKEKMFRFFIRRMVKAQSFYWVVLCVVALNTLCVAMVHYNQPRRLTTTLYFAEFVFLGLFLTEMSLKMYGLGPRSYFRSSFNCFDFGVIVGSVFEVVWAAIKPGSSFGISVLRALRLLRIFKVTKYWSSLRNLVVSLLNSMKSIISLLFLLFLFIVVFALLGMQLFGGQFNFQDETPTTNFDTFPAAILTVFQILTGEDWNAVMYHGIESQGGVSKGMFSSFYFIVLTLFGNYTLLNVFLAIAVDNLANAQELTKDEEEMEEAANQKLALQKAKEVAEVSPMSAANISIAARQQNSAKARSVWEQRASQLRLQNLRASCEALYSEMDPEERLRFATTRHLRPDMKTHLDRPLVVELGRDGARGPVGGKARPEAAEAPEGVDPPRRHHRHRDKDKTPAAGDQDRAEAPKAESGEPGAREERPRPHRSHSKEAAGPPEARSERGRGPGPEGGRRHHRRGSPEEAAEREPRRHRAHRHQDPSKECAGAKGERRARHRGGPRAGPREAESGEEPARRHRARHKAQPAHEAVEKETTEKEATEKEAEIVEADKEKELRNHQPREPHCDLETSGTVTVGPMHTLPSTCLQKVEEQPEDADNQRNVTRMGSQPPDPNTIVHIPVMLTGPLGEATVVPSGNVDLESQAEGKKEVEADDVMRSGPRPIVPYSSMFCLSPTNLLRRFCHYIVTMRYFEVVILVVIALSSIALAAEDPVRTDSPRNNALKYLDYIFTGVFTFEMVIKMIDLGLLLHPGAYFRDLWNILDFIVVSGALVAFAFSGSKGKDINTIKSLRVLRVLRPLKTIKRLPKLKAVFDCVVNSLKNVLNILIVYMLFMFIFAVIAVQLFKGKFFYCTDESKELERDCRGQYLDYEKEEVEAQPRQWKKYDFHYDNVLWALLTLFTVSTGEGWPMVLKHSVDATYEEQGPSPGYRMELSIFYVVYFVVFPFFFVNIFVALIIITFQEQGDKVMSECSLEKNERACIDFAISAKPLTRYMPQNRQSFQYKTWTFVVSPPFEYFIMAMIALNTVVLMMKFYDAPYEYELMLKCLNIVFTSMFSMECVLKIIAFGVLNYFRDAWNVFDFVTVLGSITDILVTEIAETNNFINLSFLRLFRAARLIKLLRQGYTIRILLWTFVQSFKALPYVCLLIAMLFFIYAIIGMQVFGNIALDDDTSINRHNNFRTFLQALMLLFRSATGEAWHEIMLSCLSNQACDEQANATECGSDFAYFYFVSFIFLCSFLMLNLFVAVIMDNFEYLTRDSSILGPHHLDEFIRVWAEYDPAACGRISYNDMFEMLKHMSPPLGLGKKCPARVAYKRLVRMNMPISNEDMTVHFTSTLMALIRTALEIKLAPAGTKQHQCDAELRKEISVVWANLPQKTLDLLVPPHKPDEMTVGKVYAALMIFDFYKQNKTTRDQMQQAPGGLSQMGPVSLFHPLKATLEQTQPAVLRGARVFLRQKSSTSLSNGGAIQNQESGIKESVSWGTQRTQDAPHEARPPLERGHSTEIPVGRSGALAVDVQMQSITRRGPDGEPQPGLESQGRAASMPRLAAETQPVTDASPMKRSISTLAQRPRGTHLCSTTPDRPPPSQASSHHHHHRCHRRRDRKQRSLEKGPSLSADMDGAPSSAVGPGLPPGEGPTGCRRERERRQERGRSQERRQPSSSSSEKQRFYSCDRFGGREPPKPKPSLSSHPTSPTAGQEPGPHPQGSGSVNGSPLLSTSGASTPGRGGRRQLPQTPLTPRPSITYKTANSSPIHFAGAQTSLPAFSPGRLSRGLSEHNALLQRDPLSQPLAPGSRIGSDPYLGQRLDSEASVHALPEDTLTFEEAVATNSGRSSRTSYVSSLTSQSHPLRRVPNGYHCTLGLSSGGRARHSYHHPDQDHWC
T1 sequence (P54284 whole entry partner): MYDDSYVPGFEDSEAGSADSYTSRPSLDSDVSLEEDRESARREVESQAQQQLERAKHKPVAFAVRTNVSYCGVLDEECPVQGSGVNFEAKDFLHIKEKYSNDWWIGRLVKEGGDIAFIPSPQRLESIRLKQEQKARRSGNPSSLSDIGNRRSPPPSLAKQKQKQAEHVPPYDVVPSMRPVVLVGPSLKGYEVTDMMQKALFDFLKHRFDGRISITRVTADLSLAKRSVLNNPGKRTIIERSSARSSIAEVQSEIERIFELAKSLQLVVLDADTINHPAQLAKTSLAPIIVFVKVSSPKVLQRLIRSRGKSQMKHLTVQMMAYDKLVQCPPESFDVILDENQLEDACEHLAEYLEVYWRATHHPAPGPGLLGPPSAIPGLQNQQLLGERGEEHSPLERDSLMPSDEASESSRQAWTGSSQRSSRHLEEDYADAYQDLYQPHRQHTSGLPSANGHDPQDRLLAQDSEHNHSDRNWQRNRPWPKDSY
T1 sequence (P54289 25-956 partner): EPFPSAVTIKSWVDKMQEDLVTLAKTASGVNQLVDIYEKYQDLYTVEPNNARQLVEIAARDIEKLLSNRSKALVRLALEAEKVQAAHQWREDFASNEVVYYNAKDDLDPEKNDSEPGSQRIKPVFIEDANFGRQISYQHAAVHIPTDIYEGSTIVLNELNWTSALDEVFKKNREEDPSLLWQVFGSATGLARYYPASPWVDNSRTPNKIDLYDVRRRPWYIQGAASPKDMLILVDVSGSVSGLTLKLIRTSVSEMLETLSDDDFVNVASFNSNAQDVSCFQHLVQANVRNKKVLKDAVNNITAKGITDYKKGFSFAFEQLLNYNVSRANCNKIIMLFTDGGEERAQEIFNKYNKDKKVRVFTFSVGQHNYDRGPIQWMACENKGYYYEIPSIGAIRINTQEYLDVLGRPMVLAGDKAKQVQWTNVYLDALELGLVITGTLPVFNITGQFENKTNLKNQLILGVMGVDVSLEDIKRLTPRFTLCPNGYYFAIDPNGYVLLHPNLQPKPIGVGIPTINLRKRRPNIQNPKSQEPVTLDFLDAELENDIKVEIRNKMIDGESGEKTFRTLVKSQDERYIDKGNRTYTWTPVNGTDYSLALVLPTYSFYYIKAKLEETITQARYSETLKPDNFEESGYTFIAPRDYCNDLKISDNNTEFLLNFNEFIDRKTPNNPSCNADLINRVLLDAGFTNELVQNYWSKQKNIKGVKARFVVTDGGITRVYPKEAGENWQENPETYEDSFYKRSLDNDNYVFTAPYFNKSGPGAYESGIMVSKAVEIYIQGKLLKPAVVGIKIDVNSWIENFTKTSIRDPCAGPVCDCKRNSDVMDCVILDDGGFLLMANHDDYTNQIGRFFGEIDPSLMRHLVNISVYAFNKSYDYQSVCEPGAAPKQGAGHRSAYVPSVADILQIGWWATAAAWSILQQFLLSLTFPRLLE
T1 sequence (P54289 957-1103 partner): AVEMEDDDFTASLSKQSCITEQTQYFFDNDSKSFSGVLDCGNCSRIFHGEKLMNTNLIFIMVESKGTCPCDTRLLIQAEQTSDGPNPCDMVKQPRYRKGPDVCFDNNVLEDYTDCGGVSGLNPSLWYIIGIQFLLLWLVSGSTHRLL

SMILES | IC50 [µM]
Cc1cccnc1C(=O)N1CCN(S(=O)(=O)c2ccc(C(F)(F)F)cc2)C[C@@H]1C [Example 1, (2S)-2-Methyl-1-[(3-methyl-2-pyridinyl)carbonyl]-4-{[4-(trifluoromethyl)phenyl]sulfonyl}piperazine hydrochloride] | ≥ 31.6
C[C@H]1CN(S(=O)(=O)c2ccc(C(F)(F)F)cc2)CCN1C(=O)c1ccccn1 [Example 4, (2S)-2-methyl-1-(2-pyridinylcarbonyl)-4-{[4-(trifluoromethyl)phenyl]sulfonyl}piperazine formic acid salt (1:1)] | ≥ 31.6
O=C(c1cc(-c2ccccn2)ccn1)N1CCN(S(=O)(=O)c2ccc(C(F)(F)F)cc2)CC1 [Example 5, 2′-[(4-{[4-(Trifluoromethyl)phenyl]sulfonyl}-1-piperazinyl)carbonyl]-2,4′-bipyridine] | ≥ 31.6
C[C@H]1CN(C(=O)c2ccccn2)CCN1S(=O)(=O)c1ccc(Cl)cc1 [Example 6, (2S)-1-[(4-Chlorophenyl)sulfonyl]-2-methyl-4-(2-pyridinylcarbonyl)piperazine hydrochloride] | ≥ 31.6
O=C(c1ccc(-c2ccccn2)cn1)N1CCN(S(=O)(=O)c2ccc(C(F)(F)F)cc2)CC1 [Example 7, 6′[(4-{[4-(Trifluoromethyl)phenyl]sulfonyl}-1-piperazinyl)carbonyl]-2,3′-bipyridine] | ≥ 31.6
C[C@@H]1CN(S(=O)(=O)c2ccc(Cl)cc2)CCN1C(=O)c1ccccn1 [Example 11, (2R)-4-[(4-chlorophenyl)sulfonyl]-2-methyl-1-(2-pyridinylcarbonyl)piperazine] | ≥ 31.6
C[C@H]1CN(S(=O)(=O)c2ccc(C#N)cc2)CCN1C(=O)c1ccccn1 [Example 12, 4-{[(3S)-3-methyl-4-(2-pyridinylcarbonyl)-1-piperazinyl]sulfonyl}benzonitrile] | ≥ 31.6
Cc1cccnc1C(=O)N1CCN(S(=O)(=O)c2ccc(C(F)(F)F)cc2)[C@H](C)C1 [Example 13, (2R)-2-methyl-4-[(3-methyl-2-pyridinyl)carbonyl]-1-{[4-(trifluoromethyl)phenyl]sulfonyl}piperazine] | ≥ 31.6
Cc1cccnc1C(=O)N1CCN(S(=O)(=O)c2ccc(C(F)(F)F)cc2)[C@@H](C)C1 [Example 14, (2S)-2-methyl-4-[(3-methyl-2-pyridinyl)carbonyl]-1-{[4-(trifluoromethyl)phenyl]sulfonyl}piperazine] | ≥ 31.6
Cc1cc(C(=O)N2CCN(S(=O)(=O)c3ccc(C#N)cc3)C[C@@H]2C)ccn1 [Example 15, 4-({(3S)-3-methyl-4-[(2-methyl-4-pyridinyl)carbonyl]-1-piperazinyl}sulfonyl)benzonitrile] | ≥ 31.6

More lines, now with the values ahead:

IC50 [µM] | SMILES
≥ 31.6 | Cc1cccc(C(=O)N2CCN(S(=O)(=O)c3ccc(C(F)(F)F)cc3)CC2)n1 [Example 2, 1-[(6-Methyl-2-pyridinyl)carbonyl]-4-{[4-(trifluoromethyl)phenyl]sulfonyl}piperazine]
≥ 31.6 | Cc1cccnc1C(=O)N1CCN(S(=O)(=O)c2ccc(C(F)(F)F)cc2)CC1 [Example 3, 1-[(3-Methyl-2-pyridinyl)carbonyl]-4-{[4-(trifluoromethyl)phenyl]sulfonyl}piperazine]
≥ 31.6 | O=C(c1ccncc1)N1CCN(S(=O)(=O)c2ccc(C(F)(F)F)cc2)CC1 [Example 8, 1-(4-Pyridinylcarbonyl)-4-{[4-(trifluoromethyl)phenyl]sulfonyl}piperazine]
≥ 31.6 | Cc1cc(C(=O)N2CCN(S(=O)(=O)c3ccc(C(F)(F)F)cc3)CC2)ccn1 [Example 9, 1-[(2-Methyl-4-pyridinyl)carbonyl]-4-{[4-(trifluoromethyl)phenyl]sulfonyl}piperazine]
≥ 31.6 | Cc1cc(C(=O)N2CCN(S(=O)(=O)c3ccc(C(F)(F)F)cc3)C[C@@H]2C)ccn1 [Example 10, (2S)-2-methyl-1-[(2-methyl-4-pyridinyl)carbonyl]-4-{[4-(trifluoromethyl)phenyl]sulfonyl}piperazine formic acid salt (1:1)]
